Reference: paper PMC6308099, “Suramin, screened from an approved drug library, inhibits HuR functions and attenuates malignant phenotype of oral cancer cells” (Cancer Medicine, 2018)

Biological target: T1, HuR (Homo sapiens, UniProt Q15717)
T1 construct: gene ELAVL1; full-length HuR (326 residues)
Assay: SPR steady state (Biacore T200, immobilized HuR); supported by concentration-dependent positive DSF shift
Format: binding

T1 sequence (Q15717 whole entry): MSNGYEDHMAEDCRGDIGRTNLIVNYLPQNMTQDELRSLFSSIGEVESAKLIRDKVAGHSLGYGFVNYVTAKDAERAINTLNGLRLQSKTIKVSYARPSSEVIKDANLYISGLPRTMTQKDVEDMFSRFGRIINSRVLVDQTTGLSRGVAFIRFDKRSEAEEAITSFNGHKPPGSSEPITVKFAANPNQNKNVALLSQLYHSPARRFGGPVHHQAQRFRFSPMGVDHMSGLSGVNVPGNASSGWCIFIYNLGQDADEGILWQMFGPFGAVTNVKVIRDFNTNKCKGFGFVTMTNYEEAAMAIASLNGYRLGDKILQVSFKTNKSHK

With `Cc1ccc(C(=O)Nc2ccc(S(=O)(=O)O)c3cc(S(=O)(=O)O)cc(S(=O)(=O)O)c23)cc1NC(=O)c1cccc(NC(=O)Nc2cccc(C(=O)Nc3cc(C(=O)Nc4ccc(S(=O)(=O)O)c5cc(S(=O)(=O)O)cc(S(=O)(=O)O)c45)ccc3C)c2)c1` [suramin] the Kd was 240 µM.
